# Measurements from ChEMBL document CHEMBL6127052, “Discovery of membrane-targeting amphiphilic honokiol derivatives containing an oxazolethione moiety to combat methicillin-resistant Staphylococcus aureus (MRSA) infections” (Eur J Med Chem, 2024).
# Activity calls are given as the source filed them. The calls are words filed in the database; no cut-off is given here.
# Legend:
# [1] = Toxicity in BALB/c mouse assessed as change in mental status at <15 mg/kg, ip bid for 7 days; assay type: organism-based; details: in vivo, 168 h, time 7 day
# [2] = Toxicity in KM mouse assessed as necrosis in hepatocytes at 20 mg/kg, sc measured after 24 hrs by H and E staining based analysis; assay type: organism-based; details: in vivo
# [3] = Toxicity in BALB/c mouse assessed as inflammatory cell infiltration in hepatocytes at 15 mg/kg, ip bid for 7 days; assay type: organism-based; details: in vivo, 168 h, time 7 day
# Staphylococcus aureus [4] = experiment: Antibacterial activity against methicillin-resistant Staphylococcus aureus clinical isolate M12 infected in KM mouse assessed as decrease in erythematous pustules at infected skin on back of animal at 5 mg/kg, sc measured after 24 hrs; assay type: functional, organism-based
# Staphylococcus aureus [5] = experiment: Antibacterial activity against methicillin-resistant Staphylococcus aureus clinical isolate M12 infected in KM mouse assessed as intact skin at infection site at 10 mg/kg, sc measured after 24 hrs; assay type: functional, organism-based
# Staphylococcus aureus [6] = experiment: Antibacterial activity against methicillin-resistant Staphylococcus aureus clinical isolate M12 incubated for 16 to 18 hrs in presence of cardiolipin; assay type: functional; details: time 16-18 hrs
# Staphylococcus aureus [7] = experiment: Antibacterial activity against methicillin-resistant Staphylococcus aureus clinical isolate M17 by CLSI based micro-broth dilution method; assay type: functional
# [8] = Toxicity in BALB/c mouse assessed as feeding abnormality at <15 mg/kg, ip bid for 7 days; assay type: organism-based; details: in vivo, 168 h, time 7 day
# Staphylococcus aureus [9] = experiment: Antibacterial activity against methicillin-resistant Staphylococcus aureus clinical isolate M12 infected in KM mouse assessed as reduction in IL-6 level at infection site at 10 mg/kg, sc measured after 24 hrs by ELISA; assay type: functional
# Staphylococcus aureus [10] = experiment: Induction of membrane depolarization in methicillin-resistant Staphylococcus aureus clinical isolate M12 at 8 to 32 times MIC measured every 2 mins for 10 times by DiSC3(5) dye based analysis; assay type: functional, organism-based; details: time 20.0 min
# [11] = Toxicity in KM mouse assessed as change in urea level at 20 mg/kg, sc measured after 24 hrs; assay type: organism-based; details: in vivo
# [12] = Toxicity in BALB/c mouse assessed as change in blood routine index at 15 mg/kg, ip bid for 7 days; assay type: organism-based; details: in vivo, 168 h, time 7 day
# Staphylococcus aureus [13] = experiment: Antibacterial activity against methicillin-resistant Staphylococcus aureus clinical isolate M12 infected in sepsis BALB/c mouse model assessed as decrease in degeneration of renal tubular epithelial cells at 6 to 12 mg/kg, ip administered consecutively at 12 hr-interval for 24 hrs measured after 24 hrs post-last dose by H and E staining based analysis; assay type: functional, organism-based; details: dose 6-12 mg/kg, time 48.0 hrs
# Staphylococcus aureus [14] = experiment: Antibacterial activity against methicillin-resistant Staphylococcus aureus clinical isolate M12 infected in KM mouse assessed as decrease in bacterial survival rate at 10 mg/kg, sc measured after 24 hrs by drop-plate counting method relative to control; assay type: functional
# Staphylococcus aureus [15] = experiment: Induction of morphological changes in methicillin-resistant Staphylococcus aureus clinical isolate M12 assessed as concavity in cell membrane at 8 times MIC incubated for 4 hrs by SEM analysis; assay type: functional, organism-based
# Staphylococcus aureus [16] = experiment: Antibacterial activity against methicillin-resistant Staphylococcus aureus clinical isolate M12 incubated for 16 to 18 hrs in presence of peptidoglycan; assay type: functional; details: time 16-18 hrs
# [17] = Toxicity in KM mouse assessed as change in albumin level at 20 mg/kg, sc measured after 24 hrs; assay type: organism-based; details: in vivo
# Staphylococcus aureus [18] = experiment: Antibacterial activity against methicillin-resistant Staphylococcus aureus clinical isolate M22 by CLSI based micro-broth dilution method; assay type: functional
# [19] = Toxicity in KM mouse assessed as formation of hard lumps at administration site at >40 mg/kg, sc; assay type: organism-based; details: in vivo
# [20] = Toxicity in KM mouse infected with methicillin-resistant Staphylococcus aureus clinical isolate M12 assessed as histopathological abnormality in kidney at 5 to 10 mg/kg, sc measured after 24 hrs by H and E staining based analysis; assay type: organism-based; details: in vivo, dose 5-10 mg/kg
# [21] = Toxicity in KM mouse assessed as adverse effect at 20 mg/kg, sc; assay type: organism-based; details: in vivo
# [22] = Cytotoxicity against human L02 cells assessed as cell viability at 64 ug/ml by CCK8 assay relative to control; assay type: toxicity, cell-based; details: at 64 µg/mL, read-out: Activity
# [23] = Toxicity in KM mouse assessed as change in RBC count at 20 mg/kg, sc measured after 24 hrs; assay type: organism-based; details: in vivo
# [24] = Toxicity in BALB/c mouse assessed as degeneration of hepatocytes at 15 mg/kg, ip bid for 7 days; assay type: organism-based; details: in vivo, 168 h, time 7 day
# [25] = Toxicity in BALB/c mouse assessed as pathological change in red medulla of spleen at 15 mg/kg, ip bid for 7 days; assay type: organism-based; details: in vivo, 168 h, time 7 day
# Staphylococcus aureus [26] = experiment: Bactericidal activity against methicillin-resistant Staphylococcus aureus clinical isolate M12 at 8 times MIC incubated upto 8 hrs by time-kill assay; assay type: functional, organism-based
# Staphylococcus aureus [27] = experiment: Antibacterial activity against methicillin-resistant Staphylococcus aureus clinical isolate M14 by CLSI based micro-broth dilution method; assay type: functional
# Staphylococcus aureus [28] = experiment: Induction of membrane depolarization in methicillin-resistant Staphylococcus aureus clinical isolate M12 at 32 times MIC measured for 10 mins by DiSC3(5) dye based analysis; assay type: functional, organism-based
# Staphylococcus aureus [29] = experiment: Antibacterial activity against methicillin-resistant Staphylococcus aureus clinical isolate M12 incubated for 16 to 18 hrs in presence of phosphatidylethanolamine; assay type: functional; details: time 16-18 hrs
# Staphylococcus aureus [30] = experiment: Antibacterial activity against methicillin-resistant Staphylococcus aureus clinical isolate M12 infected in KM mouse assessed as reduction in TNF-alpha level at infection site at 5 mg/kg, sc measured after 24 hrs by ELISA; assay type: functional
# [31] = Toxicity in KM mouse assessed as change in HGB level at 20 mg/kg, sc measured after 24 hrs; assay type: organism-based; details: in vivo
# [32] = Toxicity in KM mouse assessed as change in platelet count at 20 mg/kg, sc measured after 24 hrs; assay type: organism-based; details: in vivo
# Staphylococcus aureus [33] = experiment: Antibacterial activity against methicillin-resistant Staphylococcus aureus clinical isolate M12 infected in KM mouse assessed as smooth skin at infection site at 10 mg/kg, sc measured after 24 hrs; assay type: functional, organism-based
# [34] = Toxicity in KM mouse assessed as change in creatinine level at 20 mg/kg, sc measured after 24 hrs; assay type: organism-based; details: in vivo
# Staphylococcus aureus [35] = experiment: Antibacterial activity against methicillin-resistant Staphylococcus aureus clinical isolate M12 infected in KM mouse assessed as decrease in pus formation in subcutaneous area at 10 mg/kg, sc measured after 24 hrs; assay type: functional, organism-based
# [36] = Toxicity in KM mouse assessed as mental abnormality at 5 to 80 mg/kg, sc; assay type: organism-based; details: in vivo, dose 5-80 mg/kg
# [37] = Toxicity in KM mouse infected with methicillin-resistant Staphylococcus aureus clinical isolate M12 assessed as histopathological abnormality in spleen at 5 to 10 mg/kg, sc measured after 24 hrs by H and E staining based analysis; assay type: organism-based; details: in vivo, dose 5-10 mg/kg
# Staphylococcus aureus [38] = experiment: Antibacterial activity against methicillin-resistant Staphylococcus aureus clinical isolate M12 infected in KM mouse assessed as decrease in bacterial load in skin tissues at 10 mg/kg, sc measured after 24 hrs by drop-plate counting method (reference value: 6.7); assay type: functional; parameters: scale not given: the % may be the effect or the level left
# [39] = Toxicity in KM mouse assessed as pathological change in white medulla of spleen at 20 mg/kg, sc measured after 24 hrs by H and E staining based analysis; assay type: organism-based; details: in vivo
# [40] = Toxicity in KM mouse assessed as inflammatory cell infiltration in hepatocytes at 20 mg/kg, sc measured after 24 hrs by H and E staining based analysis; assay type: organism-based; details: in vivo
smiles,measurement,setting,value
C=CCc1cc(-c2ccc(OCCC[N+](C)(C)CC(=O)NCCCC)c(CC=C)c2)c2oc(=S)n(Cc3ccc(F)cc3)c2c1.[Br-],Activity,[1],Non-Toxic
same,Activity,[2],Non-Toxic
same,Activity,[3],Non-Toxic
same,Activity,Staphylococcus aureus [4],inactive
same,Activity,Staphylococcus aureus [5],Active
same,MIC,Staphylococcus aureus [6],32 µg/mL
same,MIC,Staphylococcus aureus [7],4 µg/mL
same,Activity,[8],Non-Toxic
same,Activity,Staphylococcus aureus [9],66.7 pg/mL
same,Activity,Staphylococcus aureus [10],Active
same,Activity,[11],Non-Toxic
same,Activity,[12],Non-Toxic
same,Activity,Staphylococcus aureus [13],Active
same,Activity,Staphylococcus aureus [14],99.67%
same,Activity,Staphylococcus aureus [15],Active
same,MIC,Staphylococcus aureus [16],2 µg/mL
same,Activity,[17],Non-Toxic
same,MIC,Staphylococcus aureus [18],4 µg/mL
same,Activity,[19],Toxic
same,Activity,[20],Non-Toxic
same,Activity,[21],Non-Toxic
same,viability at 64 ug/ml,[22],~70%
same,Activity,[23],Non-Toxic
same,Activity,[24],Non-Toxic
same,Activity,[25],Non-Toxic
same,Activity,Staphylococcus aureus [26],Active
same,MIC,Staphylococcus aureus [27],2 µg/mL
same,Activity,Staphylococcus aureus [28],Active
same,MIC,Staphylococcus aureus [29],2 µg/mL
same,Activity,Staphylococcus aureus [30],91.5 pg/mL
same,Activity,[31],Non-Toxic
same,Activity,[32],Non-Toxic
same,Activity,Staphylococcus aureus [33],Active
same,Activity,[34],Non-Toxic
same,Activity,Staphylococcus aureus [35],Active
same,Activity,[36],Non-Toxic
same,Activity,[37],Non-Toxic
same,Activity,Staphylococcus aureus [38],4.1%
same,Activity,[39],Non-Toxic
same,Activity,[40],Non-Toxic
